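These data come from cells grown in 96-well plates and exposed to compound for 48 hours at five concentrations. Here, GI50 denotes the concentration required for 50% inhibition of growth. TGI denotes the concentration required for complete inhibition of growth.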
How the values were obtained:
Experiment in all cases: NCI tumour cell line growth inhibition, 48 h
HOP-92 NSCLC = test system: HOP-92 NSCLC
HOP-62 NSCLC = test system: HOP-62 NSCLC
ACHN renal = test system: ACHN renal
SK-MEL-5 melanoma = test system: SK-MEL-5 melanoma
NCI-H23 lung = test system: NCI-H23 lung
UO-31 renal = test system: UO-31 renal
RXF 393 renal = test system: RXF 393 renal
SW-620 colon = test system: SW-620 colon
COLO 205 colon = test system: COLO 205 colon
LOX IMVI melanoma = test system: LOX IMVI melanoma

SMILES | GI50 (HOP-92 NSCLC) [µM] | TGI (HOP-92 NSCLC) [µM] | GI50 (HOP-62 NSCLC) [µM] | TGI (HOP-62 NSCLC) [µM] | GI50 (ACHN renal) [µM] | TGI (ACHN renal) [µM] | GI50 (SK-MEL-5 melanoma) [µM] | TGI (SK-MEL-5 melanoma) [µM] | GI50 (NCI-H23 lung) [µM] | TGI (NCI-H23 lung) [µM] | GI50 (UO-31 renal) [µM] | TGI (UO-31 renal) [µM] | GI50 (RXF 393 renal) [µM] | TGI (RXF 393 renal) [µM] | GI50 (SW-620 colon) [µM] | TGI (SW-620 colon) [µM] | GI50 (COLO 205 colon) [µM] | TGI (COLO 205 colon) [µM] | TGI (LOX IMVI melanoma) [µM] | GI50 (LOX IMVI melanoma) [µM]
Cc1nn(-c2nc3ccccc3[nH]2)c2c1C(c1ccc3c(c1)OCO3)CC(=O)N2 (stereo not given) | 2.66 | 7.14 | 2.38 | 5.21 | 4.07 | > 100 | 1.88 | 3.76 | 2.13 | 4.72 | 2.73 | 8.14 | 2.47 | 6.26 | 2.86 | 9.63 | 2.11 | 4.15 | – | –
Oc1c(N=Nc2ccccc2)c2ccccc2c2ccc3ccccc3c12 | – | > 100 | – | > 100 | – | > 100 | – | > 100 | – | > 100 | – | > 100 | – | > 100 | – | > 100 | – | > 100 | – | –
CC(C)CCc1c(Cl)nc(Cl)nc1Cl | – | – | – | 30.4 | – | 92.3 | – | 16.4 | – | – | – | 35.3 | – | 11.5 | – | > 100 | – | – | 11.8 | –
COc1ccc2c(c1)CC1c3c(cc4c(c3-2)OCO4)CCN1C (stereo not given) | – | 57 | – | 96.7 | – | 36.1 | – | 30.6 | – | 73.9 | – | 36.6 | – | – | – | 59.8 | – | 30.9 | – | –
Cc1ccc(/C=C2\CCCC\C2=N\O)cc1 | – | – | – | > 100 | – | > 100 | – | > 100 | – | > 100 | – | 84 | – | – | – | > 100 | – | > 100 | > 100 | –
C=CCN=C1NC(=O)C(CC(=O)Nc2ccc(C)cc2)S1 (stereo not given) | – | – | – | > 100 | – | > 100 | – | > 100 | – | > 100 | – | > 100 | – | > 100 | – | > 100 | – | > 100 | > 100 | –
CC12CC3CC(C1)CC(N=[N+]=[N-])(C3)C2 | – | > 100 | – | > 100 | – | > 100 | – | > 100 | – | > 100 | – | > 100 | – | – | – | > 100 | – | > 100 | > 100 | –
COc1cc([N+](=O)[O-])c(OC)cc1-c1nc2sc(Cl)cn2c1/C=N/NC(=N)N/N=C/c1c(-c2cc(OC)c([N+](=O)[O-])cc2OC)nc2sc(Cl)cn12 | – | – | – | – | 2.23 | 4.88 | 1.66 | 3.12 | – | – | – | – | – | – | 1.85 | 3.55 | 1.89 | 4.08 | – | –
O=C1C(=O)c2ccccc2C(O)=C1CCCCCCCCC1CCCCC1 | – | – | – | 36.7 | – | 15.6 | – | 23.7 | – | 14.5 | – | 20.6 | – | – | – | 17.7 | – | 22.7 | 15.8 | –
N#CN1CCC=C(c2cc3ccccc3[nH]2)C1 | – | 427 | – | > 448 | – | > 448 | – | > 448 | – | > 448 | – | – | – | > 448 | – | > 448 | – | > 448 | > 448 | –
O=C1c2c(nc3ccccc3c2-c2ccccc2)CN1Nc1ccccc1 | – | > 100 | – | > 100 | – | – | – | > 100 | – | – | – | > 100 | – | – | – | > 100 | – | > 100 | > 100 | –
Cc1ccc(N2C(=O)/C(=C/c3ccc(N(CCC#N)CCC#N)cc3C)N=C2c2cc([N+](=O)[O-])ccc2Cl)cc1 | – | > 100 | – | > 100 | – | > 100 | – | > 100 | – | > 100 | – | > 100 | – | – | – | > 100 | – | > 100 | – | –
O=C1C[C@@H]2CCCC[C@@H]2C12SCCS2 | – | – | – | > 100 | – | > 100 | – | > 100 | – | > 100 | – | > 100 | – | > 100 | – | > 100 | – | > 100 | > 100 | –
CSC1C(=O)c2ccccc2/C(=N/Nc2nc3ccccc3s2)C1C (stereo not given) | 7.93 | 25.2 | 14.4 | > 50 | 5.65 | 11.7 | 1.6 | 9.78 | 11.2 | 28.3 | 6.02 | 13.8 | – | – | 12.9 | 34.1 | 9.63 | 21.1 | 11.6 | 5.62
CCCCCCCCCCCC[n+]1ccc(C(N)=O)cc1 | – | – | 2.84 | 10.2 | 6.06 | 22 | 1.63 | 3.05 | 2.81 | 14 | 9.08 | 24.7 | 1.74 | 5.46 | 3.16 | 14.4 | 1.55 | 2.98 | 13.2 | 2.4
OCCNCCNc1c2ccccc2nc2oc3ccccc3c12 | 6.15 | 25.7 | 6.62 | 20.2 | 5.82 | 32.7 | 8.97 | 21.1 | – | – | 7.28 | 34.4 | – | – | 5.23 | 24.4 | 3.51 | 16.4 | 20.6 | 5.87
N#C[S-].[Au+].c1ccc(CN2[CH-]N(Cc3ccccc3)C(c3ccccc3)=C2c2ccccc2)cc1 | 0.292 | 1 | – | – | – | – | – | – | – | – | – | – | 0.546 | 1.86 | 0.421 | 2.99 | – | – | – | –
N=C(N)c1ccc(-c2ccc(-c3cccs3)s2)nc1 | 0.46 | 2.23 | 1.94 | 5.17 | 1.76 | 3.33 | 1.8 | 3.78 | 3.67 | 18.9 | 0.545 | 3.92 | 1.56 | 3.54 | 1.85 | 3.93 | 0.248 | 1.09 | – | –
Cc1ccc(C2=C(c3ccccc3)C(Br)(c3ccccc3)C(c3ccccc3)=C2c2ccc(C)cc2)cc1 | – | > 100 | – | > 100 | – | > 100 | – | > 100 | – | > 100 | – | > 100 | – | > 100 | – | > 100 | – | > 100 | – | –
Cc1cccc2c1C/C(=C1\CCc3c(C)cccc31)C2=O | – | – | – | > 100 | – | > 100 | – | > 100 | – | > 100 | – | > 100 | – | > 100 | – | > 100 | – | > 100 | > 100 | –
Cc1cc(=O)oc2cc(OCc3nc4ccccc4c(=O)[nH]3)ccc12 | – | > 100 | – | > 100 | – | > 100 | – | > 100 | – | > 100 | – | – | – | > 100 | – | > 100 | – | > 100 | > 100 | –

Source: PubChem BioAssay (NCI)
